In brackets after ≈: the same amount, converted by molar mass. Where two headings read alike, the source gives them in different places.
Columns and labels:
ASD core symptoms = assay: Phase 2 clinical trial of oral bumetanide formulation; format: in vivo, children and adolescents; settings: oral liquid formulation twice a day, paediatric population
Protocol: A phase 2 clinical trial that was run with various doses of the following oral formulation of bumetanide according to the invention: • Active ingredient: bumetanide at 0.5 mg/ml 1.0 mg/ml 2.0 mg/ml and placebo • Antimicrobial preservative: sodium methylparaben and sodium propylparaben • Buffering agents: NaH2PO4.2H2O and NaH2PO4 • Sweetening agents: Acesulfame potassium and sorbitol • Solvent: water The pH is 6.5. The liquid oral formulation is stored in an amber glass bottle with polypropylene/low density polyethylene child-resistant and tamper-evident cap. A 1 ml dosing pipette, consisting of a polystyrene plunger and a low-density polyethylene barrel and piston was used to administer directly the solution into the mouth. The posology was an oral administration of the liquid formulation twice a day for a paediatric population.

[1] = cited from earlier work

Question: With `CCCCNc1cc(C(=O)O)cc(S(N)(=O)=O)c1Oc1ccccc1` [Bumetanide, 3-(Butylamino)-4-phenoxy-5-sulfamoylbenzoic acid] as the compound, how does the “severity of ASD core symptoms” value (ASD core symptoms) read?
Answer: Its value is “can reduce the severity of ASD core symptoms”.

Question: And the solubility ([1]; in aqueous buffers)?
Answer: The solubility was “sparingly soluble”.

Question: What about the solubility ([1]; in dimethyl formamide (DMF)) of the same compound?
Answer: The solubility was 33 mg/mL (≈ 90.6 mM).

Question: What about the solubility ([1]; in ethanol) of the same compound?
Answer: The solubility was 14 mg/mL (≈ 38.4 mM).

Source: patent publication US20220370390A1, “LIQUID ORAL FORMULATION OF BUMETANIDE” (NEUROCHLORE, priority 2019, published 2022)
